Measurements as given in ChEMBL document CHEMBL1151523, “Synthesis of ()-6-(3-aminopropyloxy)methyl-4-demethoxy-6, 7-dideoxy-daunomycinone, a new dna intercalator related to anthracyclines” (Bioorg Med Chem Lett, 1995).

How the values were obtained:
Type in all cases: nucleic-acid assay, Bos taurus
Nucleic Acid [1] = assay: Binding affinity to Calf thymus DNA type XV; value ranges from 2E6 - 4E6 M-1
Nucleic Acid [2] = assay: Binding affinity to Calf thymus DNA type XV; value ranges from 4E6 - 6E6 M-1
Nucleic Acid [3] = assay: Binding affinity to Calf thymus DNA type XV; value ranges from 1E4 - 3E4 M-1
Nucleic Acid [4] = assay: Binding affinity to Calf thymus DNA type XV

Question: With `COc1cccc2c1C(=O)c1c(O)c3c(c(O)c1C2=O)C[C@@](O)(C(=O)CO)C[C@@H]3O[C@H]1C[C@H](N)[C@H](O)[C@H](C)O1` [DOXORUBICIN] as the molecule, how does the Ka (Nucleic Acid [1]) read?
Answer: 2000000 M⁻¹

Question: How did the Ka (Nucleic Acid [2]) turn out when `COc1cccc2c1C(=O)c1c(O)c3c(c(O)c1C2=O)C[C@@](O)(C(C)=O)C[C@@H]3O[C@H]1C[C@H](N)[C@H](O)[C@H](C)O1.Cl` [DAUNORUBICIN HYDROCHLORIDE] was run?
Answer: 4000000 M⁻¹

Question: How did the Ka (Nucleic Acid [3]) turn out when `COc1cccc2c1C(=O)c1c(O)c3c(c(O)c1C2=O)C[C@@](O)(C(C)=O)C[C@@H]3O` [DAUNOMYCINONE] was run?
Answer: 10000 M⁻¹

Question: With `CC(=O)[C@@]1(O)CCc2c(c(O)c3c(c2COCCCN)C(=O)c2ccccc2C3=O)C1.Cl` as the molecule, how does the Ka (Nucleic Acid [4]) read?
Answer: 61000 M⁻¹
